Measured values from patent publication US8828438B2, “Pharmaceutical compositions of cholesteryl ester transfer protein inhibitors and HMG-CoA reductase” (Bend Research, Inc., priority 2005, dated 2014).

Experiment: aqueous solubility
Assay type: physicochemical
Conditions: aqueous environment, water; aqueous environments; about 22° C. unless otherwise specified
From the text: The CETP inhibitor may be any compound capable of inhibiting the cholesteryl ester transfer protein. Solid amorphous dispersions are particularly useful for CETP inhibitors that have sufficiently low aqueous solubility, low bioavailability or slow rate of absorption such that it is desirable to increase their concentration in an aqueous environment of use. The CETP inhibitor is typically “sparingly water-soluble,” which means that the CETP inhibitor has a minimum aqueous solubility of less than about 1 to 2 mg/mL at any physiologically relevant pH (e.g., pH 1-8) and at about 22° C. Many CETP inhibitors are “substantially water-insoluble,” which means that the CETP inhibitor has a minimum aqueous solubility of less than about 0.01 mg/mL (or 10 μg/ml) at any physiologically relevant pH (e.g., pH 1-8) and at about 22° C. (Unless otherwise specified, reference to aqueous solubility herein and in the claims is determined at about 22° C.) Compositions of the present invention find greater utility as the solubility of the CETP inhibitors decreases, and thus are preferred for CETP inhibitors with solubilities less than about 10 μg/mL, more preferred for CETP inhibitors with solubilities less than about 2 μg/mL, and even more preferred for CETP inhibitors with solubilities less than about 1 μg/mL. […]

Structure (SMILES): CCOC(=O)N1c2ccc(C(F)(F)F)cc2[C@@H](N(Cc2cc(C(F)(F)F)cc(C(F)(F)F)c2)C(=O)OC)C[C@H]1CC [torcetrapib, [2R,4S]-4-[(3,5-bis-trifluoromethyl-benzyl)-methoxycarbonyl-amino]-2-ethyl-6-trifluoromethyl-3,4-dihydro-2H-quinoline-1-carboxylic acid ethyl ester]
- solubility: < 0.04 µg/mL
